# Experimental data from patent US9833497B2, “Human originated EGF domain proteins and use of the same” (CHENGDU SOURCEBIO LIMITED-LIABILITY COMPANY, priority 2013, dated 2017).
# Legend:
# Assay type in all cases: cell-based
# [1] = tested on: E. coli DH5α; assay: Antibacterial activity: MIC and growth curve against E. coli DH5α in 96-well plate; details: minimal inhibitory concentration against E. coli DH5α; 96-well plate, 5×10^5 CFU/mL, 37° C., judged after 8 h
# Summary of the method: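 Log-phase DH5α (OD600 about 0.5, 37° C, 185 rpm in LB) was pelleted, resuspended in fresh LB and seeded at 5×10^5 CFU/mL with recombinant protein at 50, 25 and 12.5 μg/mL (two-fold series), in triplicate. Plates were shaken at 175 rpm, 37° C, and OD600 was read every 30 min. MIC was the lowest concentration with no growth.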
# [2] = tested on: E. coli BL21; assay: MIC against Gram-negative bacteria: E. coli BL21
# Summary of the method: (§1)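 Growth inhibition by human EGF domain proteins was scored in LB liquid culture seeded at 5×10^5 CFU/mL. Protein was applied as a two-fold dilution series in triplicate, with shaking incubation at 37° C; MIC is the lowest concentration giving no growth.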
# [3] = tested on: Pseudomonas aeruginosa; assay: MIC against Gram-negative bacteria: Pseudomonas aeruginosa
# Summary of the method: as §1
# [4] = tested on: Klebsiella pneumonia; assay: MIC against Gram-negative bacteria: Klebsiella pneumonia
# Summary of the method: as §1
# [5] = tested on: Enterobacter cloacae; assay: MIC against Gram-negative bacteria: Enterobacter cloacae
# Summary of the method: as §1
# [6] = tested on: Aeromonas hydrophila; assay: MIC against Gram-negative bacteria: Aeromonas hydrophila
# Summary of the method: as §1
# [7] = tested on: Citrobacter diversus; assay: MIC against Gram-negative bacteria: Citrobacter diversus
# Summary of the method: as §1
# [8] = tested on: Moraxella catarrhalis; assay: MIC against Gram-negative bacteria: Moraxella catarrhalis
# Summary of the method: as §1
# [9] = tested on: Proteus mirabilis; assay: MIC against Gram-negative bacteria: Proteus mirabilis
# Summary of the method: as §1
# [10] = tested on: Proteus vulgaris; assay: MIC against Gram-negative bacteria: Proteus vulgaris
# Summary of the method: as §1
# [11] = tested on: Serratia marcescens; assay: MIC against Gram-negative bacteria: Serratia marcescens
# Summary of the method: as §1
# [12] = E. coli BL21, 96-well plate, 5×10^5 CFU/mL, 37° C., 10 h
# [13] = Pseudomonas aeruginosa, 96-well plate, 5×10^5 CFU/mL, 37° C., 10 h
# [14] = Klebsiella pneumonia, 96-well plate, 5×10^5 CFU/mL, 37° C., 10 h
# [15] = Enterobacter cloacae, 96-well plate, 5×10^5 CFU/mL, 37° C., 10 h
# [16] = Aeromonas hydrophila, 96-well plate, 5×10^5 CFU/mL, 37° C., 10 h
# [17] = Citrobacter diversus, 96-well plate, 5×10^5 CFU/mL, 37° C., 10 h
# [18] = Moraxella catarrhalis, 96-well plate, 5×10^5 CFU/mL, 37° C., 10 h
# [19] = Proteus mirabilis, 96-well plate, 5×10^5 CFU/mL, 37° C., 10 h
# [20] = Proteus vulgaris, 96-well plate, 5×10^5 CFU/mL, 37° C., 10 h
# [21] = Serratia marcescens, 96-well plate, 5×10^5 CFU/mL, 37° C., 10 h
# [22] = E. coli BL21, 10 h cultivation at 37° C., 5×10^5 CFU/mL
# [23] = P. aeruginosa, 10 h cultivation at 37° C., 5×10^5 CFU/mL
# [24] = K. pneumonia, 10 h cultivation at 37° C., 5×10^5 CFU/mL
# [25] = E. cloacae, 10 h cultivation at 37° C., 5×10^5 CFU/mL
# [26] = A. hydrophila, 10 h cultivation at 37° C., 5×10^5 CFU/mL
# [27] = C. diversus, 10 h cultivation at 37° C., 5×10^5 CFU/mL
# [28] = M. catarrhalis, 10 h cultivation at 37° C., 5×10^5 CFU/mL
# [29] = P. mirabilis, 10 h cultivation at 37° C., 5×10^5 CFU/mL
# [30] = P. vulgaris, 10 h cultivation at 37° C., 5×10^5 CFU/mL
# [31] = S. marcescens, 10 h cultivation at 37° C., 5×10^5 CFU/mL
# [32] = 96-well plate, 5×10^5 CFU/mL, 37° C., 10 h
substance,measurement,setting,value
PRT1376 (ATRMCPADCRGRGRCVQGVCLCHVGYGGEDCG; listed as Homo sapiens),MIC,[1],50 µg/mL
same,MIC against E. coli BL21,"[2]; E. coli BL21, 5×10^5 CFU/mL, 10 h cultivation at 37° C.",12.5 µg/mL
same,MIC against P. aeruginosa,"[3]; Pseudomonas aeruginosa, 5×10^5 CFU/mL, 10 h cultivation at 37° C.",50 µg/mL
same,MIC against K. pneumonia,"[4]; Klebsiella pneumonia, 5×10^5 CFU/mL, 10 h cultivation at 37° C.",12.5 µg/mL
same,MIC against E. cloacae,"[5]; Enterobacter cloacae, 5×10^5 CFU/mL, 10 h cultivation at 37° C.",50 µg/mL
same,MIC against A. hydrophila,"[6]; Aeromonas hydrophila, 5×10^5 CFU/mL, 10 h cultivation at 37° C.",12.5 µg/mL
same,MIC against C. diversus,"[7]; Citrobacter diversus, 5×10^5 CFU/mL, 10 h cultivation at 37° C.",50 µg/mL
same,MIC against M. catarrhalis,"[8]; Moraxella catarrhalis, 5×10^5 CFU/mL, 10 h cultivation at 37° C.",12.5 µg/mL
same,MIC against P. mirabilis,"[9]; Proteus mirabilis, 5×10^5 CFU/mL, 10 h cultivation at 37° C.",50 µg/mL
same,MIC against P. vulgaris,"[10]; Proteus vulgaris, 5×10^5 CFU/mL, 10 h cultivation at 37° C.",12.5 µg/mL
same,MIC against S. marcescens,"[11]; Serratia marcescens, 5×10^5 CFU/mL, 10 h cultivation at 37° C.",25 µg/mL
PRT81 (TCGPCNCDVSKGFDPDCNKTSGECHCKENHYRPPGSPTCL; listed as Homo sapiens),MIC,[1],12.5 µg/mL
same,MIC (μg/mL) E. coli BL21,[2]; [12],12.5 µg/mL
same,MIC (μg/mL) P. aeruginosa,[3]; [13],12.5 µg/mL
same,MIC (μg/mL) K. pneumonia,[4]; [14],25 µg/mL
same,MIC (μg/mL) E. cloacae,[5]; [15],12.5 µg/mL
same,MIC (μg/mL) A. hydrophila,[6]; [16],25 µg/mL
same,MIC (μg/mL) C. diversus,[7]; [17],12.5 µg/mL
same,MIC (μg/mL) M. catarrhalis,[8]; [18],50 µg/mL
same,MIC (μg/mL) P. mirabilis,[9]; [19],12.5 µg/mL
same,MIC (μg/mL) P. vulgaris,[10]; [20],25 µg/mL
same,MIC (μg/mL) S. marcescens,[11]; [21],50 µg/mL
PRT825 (FGPNCTHVCGCGQGAACDPVTGTCLCPPGRAGVRCE; listed as Homo sapiens),MIC,[1],25 µg/mL
same,MIC (μg/mL) E. coli BL21,[2]; [22],12.5 µg/mL
same,MIC (μg/mL) P. aeruginosa,[3]; [23],25 µg/mL
same,MIC (μg/mL) K. pneumonia,[4]; [24],50 µg/mL
same,MIC (μg/mL) E. cloacae,[5]; [25],25 µg/mL
same,MIC (μg/mL) A. hydrophila,[6]; [26],12.5 µg/mL
same,MIC (μg/mL) C. diversus,[7]; [27],25 µg/mL
same,MIC (μg/mL) M. catarrhalis,[8]; [28],50 µg/mL
same,MIC (μg/mL) P. mirabilis,[9]; [29],12.5 µg/mL
same,MIC (μg/mL) P. vulgaris,[10]; [30],50 µg/mL
same,MIC (μg/mL) S. marcescens,[11]; [31],25 µg/mL
PRT162 (LIDFCALSPCAHGTCRSVGTSYKCLCDPGYHGLYCE; listed as Homo sapiens),MIC,[1],12.5 µg/mL
same,MIC (μg/mL) E. coli BL21,[2]; [22],25 µg/mL
same,MIC (μg/mL) P. aeruginosa,[3]; [23],12.5 µg/mL
same,MIC (μg/mL) K. pneumonia,[4]; [24],25 µg/mL
same,MIC (μg/mL) E. cloacae,[5]; [25],12.5 µg/mL
same,MIC (μg/mL) A. hydrophila,[6]; [26],25 µg/mL
same,MIC (μg/mL) C. diversus,[7]; [27],12.5 µg/mL
same,MIC (μg/mL) M. catarrhalis,[8]; [28],12.5 µg/mL
same,MIC (μg/mL) P. mirabilis,[9]; [29],100 µg/mL
same,MIC (μg/mL) P. vulgaris,[10]; [30],12.5 µg/mL
same,MIC (μg/mL) S. marcescens,[11]; [31],25 µg/mL
PRT661 (QAEECGILNGCENGRCVRVREGYTCDCFEGFQLDAAHMACV; listed as Homo sapiens),MIC,[1],50 µg/mL
same,MIC E. coli BL21,[2]; [32],25 µg/mL
same,MIC P. aeruginosa,[3]; [32],12.5 µg/mL
same,MIC K. pneumonia,[4]; [32],25 µg/mL
same,MIC E. cloacae,[5]; [32],50 µg/mL
same,MIC A. hydrophila,[6]; [32],25 µg/mL
same,MIC C. diversus,[7]; [32],12.5 µg/mL
same,MIC M. catarrhalis,[8]; [32],25 µg/mL
same,MIC P. mirabilis,[9]; [32],50 µg/mL
same,MIC P. vulgaris,[10]; [32],25 µg/mL
same,MIC S. marcescens,[11]; [32],25 µg/mL
PRT951 (WTDACLSHPCANGSTCTTVANQFSCKCLTGFTGQKCE; listed as Homo sapiens),MIC,[1],25 µg/mL
same,MIC,"[2]; E. coli BL21, 10 h cultivation at 37° C.",25 µg/mL
same,MIC,"[3]; P. aeruginosa, 10 h cultivation at 37° C.",25 µg/mL
same,MIC,"[4]; K. pneumonia, 10 h cultivation at 37° C.",25 µg/mL
same,MIC,"[5]; E. cloacae, 10 h cultivation at 37° C.",12.5 µg/mL
same,MIC,"[6]; A. hydrophila, 10 h cultivation at 37° C.",12.5 µg/mL
same,MIC,"[7]; C. diversus, 10 h cultivation at 37° C.",25 µg/mL
same,MIC,"[8]; M. catarrhalis, 10 h cultivation at 37° C.",12.5 µg/mL
same,MIC,"[9]; P. mirabilis, 10 h cultivation at 37° C.",25 µg/mL
same,MIC,"[10]; P. vulgaris, 10 h cultivation at 37° C.",50 µg/mL
same,MIC,"[11]; S. marcescens, 10 h cultivation at 37° C.",100 µg/mL
PRT102 (DRCLPNYCEHGGECSQSWSTFHCNCTNTGYRGATC; listed as Homo sapiens),MIC,[1],12.5 µg/mL
same,MIC (μg/mL) E. coli BL21,[2]; [12],12.5 µg/mL
same,MIC (μg/mL) P. aeruginosa,[3]; [13],12.5 µg/mL
same,MIC (μg/mL) K. pneumonia,[4]; [14],12.5 µg/mL
same,MIC (μg/mL) E. cloacae,[5]; [15],12.5 µg/mL
same,MIC (μg/mL) A. hydrophila,[6]; [16],12.5 µg/mL
same,MIC (μg/mL) C. diversus,[7]; [17],25 µg/mL
same,MIC (μg/mL) M. catarrhalis,[8]; [18],12.5 µg/mL
same,MIC (μg/mL) P. mirabilis,[9]; [19],25 µg/mL
same,MIC (μg/mL) P. vulgaris,[10]; [20],12.5 µg/mL
same,MIC (μg/mL) S. marcescens,[11]; [21],25 µg/mL
